In patent US9084818B2, “Topical dermal delivery compositions using self assembling nanoparticles with cetylated components” (CYMBIOTICS, INC., priority 2013, dated 2015):

What was measured:
[1] = Minimum HLB needed for cetosome formation; type: physicochemical; details: surfactant HLB requirement to solubilize and stabilize within the cetosome
Method: Core components are also chosen with melting points between 40° to 75° C. This allows for thermal dissociation into the oil phase and strong affinity re-association as the temperature is reduced.

[2] = Pre-clinical pharmacokinetic feasibility study of oxybutynin cream on shaved rabbit backs; type: in vivo, rabbits
Method: Two levels of oxybutynin hydrochloride for use in the study were incorporated into the composition matrix: 5 mg/gm and 0.5 mg/ml. Three rabbits were chosen for each dosing. Animal backs were shaved were shaved 24 hrs prior to application. One gram was applied to the shaved area and rubbed in. This was covered by non-absorbent dressing. One milliliter of blood was collected from a marginal ear vein at baseline, 15 minutes, 1 hr, 6 hrs, 12 hrs and 24 hrs following dosing. Heparin was used as anticoagulant. Extracted samples were analyzed using an LC/MS-MS spectrometer (API 3000) with diazepam as an internal standard. Mobile phase was a 50:40:10 mixture (methanol:acetonitrile: 10 mM ammonium formate). The column used was a Phenomenex, Luna C18, 150×4.6 mm, 5 micron. Temperature for analysis was 30° C. with a flow rate of 1.0 ml/min with splitter with detection using ESI positive ion. Both oxybutynin and N-desethyl-oxybutynin were analyzed. N-desethyl-oxybutynin (DES) is a metabolite of oxybutynin considered to be associated with adverse secondary side effects.

[3] = rabbit, in vivo, topical or ocular, 5 mg
[4] = Cream, 0.5 mg/ml, one gram topical, rabbit plasma, mean

Compound | MINIMUM HLB NEEDED FOR CETOSOME FORMATION [1] | melting point [°C] | further results
CCCCCCCCCCCCCCCCO [Cetyl Alcohol] | 15.5 |  | 
CCCCCCCCCCCCCCCCOC(=O)CCCCCCCCC [Cetyl Decanoate] | 10 | 40 to 44 | 
CCCCCCCCCCCCCCCCOC(=O)CCCCCCCCCCC [Cetyl Laurate] | 10 | 43 to 45 | 
CCCCCCCCCCCCCCCCOC(=O)CCCCCCCCCCCCC [Cetyl Myristate] | 10 | 45 to 48 | 
CCCCCCCCCCCCCCCCOC(=O)CCCCCCC [Cetyl Octanoate] | 10 | 52 to 60 | 
CCNCC#CCOC(=O)C(O)(c1ccccc1)C1CCCCC1 (stereo not shown) [DES, N-desethyl-oxybutynin] |  |  | detection of the metabolite in plasma during the 24 hour period ([2]; either level of dose application): not detectable; Tmax ([2]; rabbit, in vivo, topical or ocular): <0.5 h
CCN(CC)CC#CCOC(=O)C(O)(c1ccccc1)C1CCCCC1 (stereo not shown) [Oxybutynin, oxybutynin] |  |  | AUC(0-t) [2, 3]: 22 ng·h/mL; Cmax [2, 3]: 9.33 ng/mL; Tmax [2, 3]: 6 h
Cetyl Isomyristate | 10 |  | 
oxybutynin |  |  | AUC 0-24 hr [2, 4]: 2.512 ng·h/mL; Cmax [2, 4]: 0.836 ng/mL; Tmax [2, 4]: 12 h

Now from value to compound, other results behind:

MINIMUM HLB NEEDED FOR CETOSOME FORMATION [1] | melting point [°C] | Compound | further results
10 | 58 to 60 | CCCCCCCC/C=C\CCCCCCCC(=O)OCCCCCCCCCCCCCCCC [Cetyl Oleate] | 
10 |  | CCCCCCCCCCCCCCCCOC(=O)CCCCCCCCCCCCCCC [Cetyl Palmitate] | 
10 | 45 to 52 | CCCCCC/C=C\CCCCCCCC(=O)OCCCCCCCCCCCCCCCC [Cetyl Palmitoleate] | 
10 | 62 to 70 | CCCCCCCCCCCCCCCCCC(=O)OCCCCCCCCCCCCCCCC [Cetyl Stearate] | 
